Reference: US20250338846A1, “COMPOSITIONS HAVING PESTICIDAL UTILITY AND PROCESSES RELATED THERETO” (CORTEVA AGRISCIENCE, LLC, priority 2022, published 2025)

What was measured:
Assay type in all cases: in vivo
[1] = test system: Sweet Potato Whitefly (Bemisia tabaci, BEMITA); assay: Bioassay 2: Sweet Potato Whitefly, spray on cotton seedlings at crawler emergence, nymphs counted 7-9 days after treatment; conditions: AI alone 0.1 (10-5) % w/v
In short: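 Cotton seedlings pruned to one true leaf were colonized by adult B. tabaci for 24 h egg-laying, then sprayed once >25% crawler emergence was underway; solutions 0.001% to 0.00000001% (w/v) in acetone/water with 0.025% Tween 20. Held ~25° C; live 2-3 instar nymphs counted 7-9 days later, Abbott-corrected % control.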

[2] = test system: Western Flower Thrips (Frankliniella occidentalis, FRANOC); assay: Bioassay 3: Western Flower Thrips, cotton leaf disc dip, live WFT counted 3 days after treatment; conditions: Frankliniella occidentalis, foliar, 72 h; AI alone 0.0003125 % w/v
Procedure: Stock solutions of Formula One and various active ingredients were prepared initially at a concentration of 8 mg/ml for Formula One and 1 mg/mL for the active ingredients, respectively, using acetone as a diluent. Stock solutions were prepared with Formula One as well as for each of the active ingredients individually. Test solutions were prepared from the stock solutions. Test solutions were prepared containing Formula One, the individual active ingredients, and mixtures of Formula One with each of the active ingredients. The test solution for Formula One was prepared by adding 500 μL of the stock solution to a 25 mL glass vial, then adding 500 μL of acetone, followed by the addition of 9 mL water with 0.025% Tween®) 20 to create a 0.04% (w/v) solution. The test solutions of the individual active ingredients were prepared by adding 500 μL of stock solution to a 25 mL glass vial, then adding 500 μL of acetone, followed by the addition of 9 mL water with 0.025% Tween®) 20 to create a 0.005% (w/v) solution. The test solutions containing mixtures of Formula One and the individual active ingredients were prepared by adding 500 μL of the active ingredient stock solution to a 25 mL glass vial, followed by 500 μL of the Formula One stock solution, then by the addition of 9 mL water with 0.025% Tween®) 20 to create a test solution containing 0.04% (w/v) Formula One and 0.005% (w/v) of the active ingredient. Each test solution was serially diluted to create desired doses of test solutions (0.005% (w/v), 0.00125% (w/v), 0.0003125% (w/v), 0.000078% (w/v), and 0.0000195% (w/v)). In test solutions containing mixtures of Formula One and the active ingredients, the active ingredients were diluted as described above, but the Concentration of Formula One was held constant (0.04% (w/v)).
The test solutions were tested against WFT using the following procedure: Leaf discs (2.7 cm in diameter) were cut from the true leaves of cotton plants. Leaf discs were dipped into the test solutions and shaken to ensure complete coverage of the leaf disc and then placed in Millipore®) PetriSlides containing a filter paper disc. Treated leaf discs were air dried for approximately 1 hour. Each leaf disc was infested with 5 WFT (9-10-day old nymphs) by placement on each leaf disc, and the PetriSlides were capped to prevent escape. Each treatment was replicated three times and the test treatments were held at approximately 26° C. and ambient relative humidity (RH) prior to grading. Reference discs (solvent check) were treated with the diluent only. Evaluation was conducted by counting the number of live WFT under magnification 3 days after treatment. Percent control was measured using Abbott's correction formula (W. S. Abbott, J. Econ. Entomol. 18 (1925), pp. 265-267) as follows:
where X=No. of live nymphs on solvent check leaf discs and Y=No. of live nymphs on treated leaf discs. In Table B3 the “Expected % Control” was calculated using the method described in Colby S. R., Weeds, 1967, 15, 20-22. Bioassay 4: Western Tarnished Plant Bug (Lygus hesperus, LYGUHE) (“WTPB”).

[3] = test system: Diamondback Moth (Plutella xylostella, PLUTMA); assay: Bioassay 6: Diamondback Moth, artificial lepidopteran diet, live larvae after 5 days; conditions: DBM; AI alone 0.04 % w/v
Procedure: where X=No. of live nymphs on solvent check and Y=No. of live nymphs on treated bean segments. In Table B5 the “Expected % Control” was calculated using the method described in Colby S. R., Weeds, 1967, 15, 20-22. Bioassay 6: Beet Armyworm (Spodoptera exigua, LAPHEG) (BAW), and Diamondback Moth (Plutella xylostella, PLUTMA) (DBM).
(§1) Stock solutions were prepared with Formula One as well as for each of the active ingredients individually. Test solutions were prepared from the stock solutions. Test solutions were prepared containing Formula One, the individual active ingredients, and mixtures of Formula One with each of the active ingredients. The test solution for Formula One was prepared by adding 500 μL of the stock solution to a 25 mL glass vial, then adding 500 μL of a 9:1 mixture of acetone: water. The individual active ingredients were prepared by adding 500 μL of stock solution to a 25 mL glass vial, then adding 500 μL of a 9:1 mixture of acetone: water. The test solutions containing mixtures of Formula One and the individual active ingredients were prepared by adding 500 μL of the active ingredient stock solution to a 25 mL glass vial, followed by 500 μL of the Formula One stock solution, creating a test solution containing 4000 ppm Formula One and 0.4% (w/v) of the active ingredient. Each test solution was serially diluted to create desired doses of test solutions (0.4% (w/v), 0.04% (w/v), 0.004% (w/v), 0.0004% (w/v), 0.00004% (w/v), and 0.000004% (w/v)). In test solutions containing mixtures of Formula One and the active ingredients, the active ingredients were diluted as described above, but the Concentration of Formula One was held constant (0.4% (w/v)). The highest dose test solution (0.4% (w/v)) was discarded, leaving 5 test solution concentrations used in the test.
The test solutions were tested against BAW and DBM using the following procedure: An artificial lepidopteran diet (Multispecies Lepidopteran Diet, Southland Products) was distributed in 128-cell bioassay trays (Frontier Agricultural Sciences™). 50 μL of test solution was pipetted into a cell in the bioassay tray. (The test solution doses of 0.04% (w/v), 0.004% (w/v), 0.0004% (w/v), 0.00004% (w/v), and 0.000004% (w/v) translated to concentrations of 5, 0.5, 0.05, 0.005, and 0.0005 ug/cm^2 on the diet, respectively.) A reference treatment (solvent check) was treated with the diluent only. […] After 5 days, the number of live larvae were recorded from each cell and percent control was measured using Abbott's correction formula (W. S. Abbott, J. Econ. Entomol. 18 (1925), pp. 265-267) as follows:
where X=No. of live larvae on solvent check and Y=No. of live larvae on treated diet. In Table B6 the “Expected % Control” was calculated using the method described in Colby S. R., Weeds, 1967, 15, 20-22. […]

[4] = test system: Cotton Aphid (Aphis gossypii, APHIGO); assay: Bioassay 7: Cotton Aphid, foliar spray on infested cotton seedlings, live aphids counted three days after treatment
Procedure: where X=No. of live larvae on solvent check and Y=No. of live larvae on treated diet. In Table B6 the “Expected % Control” was calculated using the method described in Colby S. R., Weeds, 1967, 15, 20-22. Bioassay 7: Cotton Aphid (Aphis gossypii, APHIGO) (“CA”).
Stock solutions of Formula One and one or more of the active ingredients were prepared at concentrations of 1 mg/mL using a 1:1 mixture of acetone: methanol as a diluent. The stock solutions were prepared with Formula One as well as for each of the active ingredients individually. Test solutions were prepared from the stock solutions. Test solutions were prepared containing Formula One, the individual active ingredients, and mixtures of Formula One with each of the active ingredients. The test solutions for Formula One and the individual active ingredients were prepared by adding 1.5 mL of stock solution to a 30 mL glass vial, then adding 1.5 mL of 1:1 acetone: methanol solvent, followed by the addition of 27 mL water with 0.025% Tween® 20 to create a […]. Each test solution was serially diluted to create desired doses of test solutions ranging from 0.000001 to 0.0025% (w/v). The test solutions were tested against CA using the following procedure: cotton seedlings were grown in 3-inch pots with one true leaf (2-5 cm in diameter) were used as test substrate. The seedlings were infested with 20-50 CA (wingless adult and nymph stages) one day prior to chemical application. Four pots with individual seedlings were used for each treatment. A hand-held aspirator-type sprayer was used for spraying a solution to both sides of […] leaves until runoff. Reference plants (solvent check) were sprayed with the diluent only (0.025% Tween® 20 and 10% acetone:methanol (1:1) in water). Treated plants were held in a holding room for three days at approximately 25° C. and ambient relative humidity (RH about 20% to about 45%) prior to grading. Evaluation was conducted by counting the number of live aphids per plant under a microscope three days after treatment. Percent control was measured using Abbott's correction formula (W. S. Abbott, J. Econ. Entomol. 18 (1925), pp. 265-267) as follows:
(§2) where X=No. of live aphids on solvent check plants and Y=No. of live aphids on treated plants. In Table B1 the “Expected % Control” was calculated using the method described in Colby S. R., Weeds, 1967, 15, 20-22. Bioassay 8: Sweet Potato Whitefly (Bemisia tabaci, BEMITA) (“SPW”).

[5] = test system: Sweet Potato Whitefly (Bemisia tabaci, BEMITA); assay: Bioassay 8: Sweet Potato Whitefly, spray on cotton seedlings at crawler emergence, nymphs counted 7-9 days after treatment
Procedure: as §2
Stock solutions were prepared with Formula One as well as for each of the active ingredients individually. Test solutions were prepared from the stock solutions. Test solutions were prepared containing Formula One, the individual active ingredients, and mixtures of Formula One with each of the active ingredients. The test solutions for Formula One and the individual active ingredients were prepared by adding 500 μL of stock solution to a 25 mL glass vial, then adding 500 μL of acetone, followed by the addition of 9 mL water with 0.025% Tween®) 20 to create a 0.001% (w/v) solution. The test solutions containing mixtures of Formula One and the individual active ingredients were prepared by adding 500 μL of the active ingredient stock solution to a 25 mL glass vial, followed by 500 μL of the Formula One stock solution, then by the addition of 9 mL water with 0.025% Tween®) 20 to create a test solution containing 0.001% (w/v) Formula One and 0.001% (w/v) of the active ingredient. Each test solution was serially diluted to create desired doses of test solutions (0.001% (w/v), 0.0001% (w/v), 0.00001% (w/v), 0.000001% (w/v), 0.0000001% (w/v), […] and 0.00000001% (w/v)).
The test solutions were tested against SPW using the following procedure: Cotton seedlings grown in 3-inch pots, pruned so that only one true leaf remained, were used as test substrate. Adult B. tabaci were allowed to colonize the cotton plants and lay eggs for 24 hours after which all adults were removed from the plants using compressed air. Plants were monitored for egg development and, when crawler emergence was underway (>25% emergence based on visual examination using a microscope), the plants were sprayed using the test solutions and methods described above for green peach aphids (GPA). Treated plants were held in a holding room at approximately 25° C. and ambient relative humidity (RH) prior to grading. Evaluation was conducted by counting the number of developed 2-3 instar nymphs per plant under a microscope 7-9 days after treatment. Percent control was measured using Abbott's correction formula (W. S. Abbott, J. Econ. Entomol. 18 (1925), pp. 265-267) as follows:
(§3) where X=No. of live nymphs on solvent check plants and Y=No. of live nymphs on treated plants. In Table B2 the “Expected % Control” was calculated using the method described in Colby S. R., Weeds, 1967, 15, 20-22. Bioassay 9: Diamondback Moth (Plutella xylostella, PLUTMA) (DBM).

[6] = test system: Diamondback Moth (Plutella xylostella, PLUTMA); assay: Bioassay 9: Diamondback Moth, leaves of track-sprayed cabbage plants, mortality and feeding damage scored; conditions: AI alone 20 (10^-5) Wt %
Procedure: as §3, §1
Cabbage seedlings, grown in 3-inch pots with 2-3 small (3-5 centimeter (cm)) true leaves, were used as test substrate. Cabbage plants were sprayed with desired concentrations of Formula One and active ingredients or their mixtures using a track Sprayer. Reference plants (solvent check) were sprayed with diluent only (0.025% Tween® 20 and 10% acetone:methanol (1:1) in water). The sprayed cabbage plants were allowed to dry for 1 hour, after which leaves from each treatment were placed in a cell of a plastic tray. One leaf per cell and 8 replicates for each cell. The tested doses ranged between 0.000001% (w/v) to 0.0002% (w/v). One 2nd instar DBM larvae were placed in each cell of the tray and allowed to feed on the cabbage foliage for […] after which the mortality and feeding damage were scored. Test trays were held at approximately 26° C. and ambient relative humidity (RH) prior to grading. The number of live larvae were recorded from each cell and percent control was measured using Abbott's correction formula (W. S. Abbott, J. Econ. Entomol. 18 (1925), pp. 265-267) as follows:
where X=No. of live larvae on solvent check and Y=No. of live larvae on treated diet. In Table B6 the “Expected % Control” was calculated using the method described in Colby S. R., Weeds, 1967, 15, 20-22.

[7] = test system: Diamondback Moth (Plutella xylostella, PLUTMA); assay: as above; conditions: Feeding damage control; AI alone 40 (10^-5) Wt %

Row | Compound | Average % Control AI [1] | pest or weed control at 0.0003125 % strength [2] | Average % Control AI [3] | Average % Control A1 ([4]; AI alone 0.2 (10^-5) Wt %) | Average % Control A1 ([4]; AI alone 7 (10^-5) Wt %) | Average % Control A1 ([4]; AI alone 12 (10^-5) Wt %) | Average % Control A1 ([5]; AI alone 0.1 (10^-5) Wt %) | Average % Control A1 ([5]; AI alone 0.8 (10^-5) Wt %) | Average % Control AI ([6]; Acute mortality) | Average % Control AI ([6]; Feeding damage control) | Average % Control AI [7]
1 | CNC(=O)O/N=C(\SC)C(=O)N(C)C [Oxamyl] | 0% | 0% | 0% | – | – | – | – | – | – | – | –
2 | Spidoximat | – | – | – | 13.25% | 32.54% | 35.09% | 37.90% | 62.26% | 0.00% | 17.83% | 37.98%
